The MIC is the lowest concentration found to suppress growth. Higher therefore signals a less susceptible organism. A word on the IC50: it is the concentration that inhibits the measured activity by half.

The structures appear in SMILES notation. In brackets after ≈: the same amount, converted by molar mass.

In patent US5696117A, “Benzoxazine antimicrobial agents” (Ortho Pharmaceutical Corporation, priority 1995, dated 1997) one finds MIC and IC50 data, which are given here for 24 molecules.

For one assay, the system named is gram positive bacteria. Briefly: MIC antimicrobial assay, microdilution broth method (NCCLS), gram positive bacteria. Type of assay: cell-based. The settings on record: range over the gram positive test organisms; 35° C., 16-20 hours. The method, then:
2. MIC Anitimicrobial Assay
The in vitro antimicrobial activity of the compounds was determined by the microdilution broth method following the test method from the National Committee for Laboratory Standards (NCCLS). This method is described in the NCCLS Document M7-A2, Vol. 10, No. 8 "Methods for Dilution Antimicrobial Susceptibility Test for Bacteria that Grow Aerobically--Second Edition."
In this method two-fold serial dilutions of drug in cation supplemented Mueller-Hinton broth are added to wells in microdilution trays. The test organisms are prepared by adjusting the turbidity of actively growing broth cultures so that the final concentration of test organism after it is added to the wells is approximately 5×10^4 CFUs/well.
Following inoculation of the microdilution trays, the trays are incubated at 35° C. for 16-20 hours and then read. […] The amount of growth in the wells containing the test compound is compared with the amount of growth in the growth-control wells (no test compound) used in each tray. As set forth in Tables 1 and 2, compounds of the present invention were tested against a variety of Gram+ and Gram- pathogenic bacteria resulting in a range of activities, from 1→128 μg/mL depending on the organism tested. The following test organisms were utilized in the assay:
Enterococcus faecalis ATCC 29212
Enterococcus faecalis oc 3041
Enterococcus faecium oc 2993
Methicillin resistant Staphylococcus aureus oc 2089
Methicillin resistant Staphylococcus aureus oc667
Staphylococcus aureus ATCC 29213
Staphylococcus aureus ATCC 6538
Staphylococcus epidermidis oc 2603
Background: In broth dilution the organism is exposed to a series of concentrations in liquid medium.

The target of another assay is T1, Kinase A and SpoOF (Bacillus subtilis, UniProt P16497).
T1 construct: made in house; host or cells: recombinant E. coli (overexpression)
T1 sequence (P16497 1-606): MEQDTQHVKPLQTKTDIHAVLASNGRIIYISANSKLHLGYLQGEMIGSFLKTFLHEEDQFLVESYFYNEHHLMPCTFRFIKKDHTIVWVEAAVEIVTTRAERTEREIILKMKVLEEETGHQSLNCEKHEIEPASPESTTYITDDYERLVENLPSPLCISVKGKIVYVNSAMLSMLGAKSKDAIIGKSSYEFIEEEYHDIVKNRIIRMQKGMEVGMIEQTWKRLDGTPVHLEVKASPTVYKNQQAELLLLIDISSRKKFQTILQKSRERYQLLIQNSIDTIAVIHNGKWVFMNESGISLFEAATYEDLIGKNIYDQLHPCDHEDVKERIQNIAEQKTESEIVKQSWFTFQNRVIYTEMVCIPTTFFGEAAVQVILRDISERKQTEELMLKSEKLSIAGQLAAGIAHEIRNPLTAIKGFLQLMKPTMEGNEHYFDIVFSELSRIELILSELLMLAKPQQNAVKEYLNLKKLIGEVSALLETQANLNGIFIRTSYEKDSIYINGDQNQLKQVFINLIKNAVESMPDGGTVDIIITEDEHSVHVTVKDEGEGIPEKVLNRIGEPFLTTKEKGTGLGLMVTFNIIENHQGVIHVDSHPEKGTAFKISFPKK
Put plainly: Autophosphorylation of Kinase A and Transphosphorylation of SpoOF Assay (HPK in vitro assay). Type of assay: biochemical. The settings on record: inhibition of KinA autophosphorylation / SpoOF transphosphorylation, inhibitor concentrations from 1 to 500 μM. The essentials:
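Recombinant KinA and SpoOF (from E. coli) preincubated 15 min on ice with compound (1.0 mM solution in 5% DMSO, stock), then 10 min at room temperature with [32P]ATP. Labelled proteins resolved by SDS gel, quantified by phosphoimager; IC50 from 1–500 μM compound range.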

For the molecule `NCc1ccc(OCCC2Oc3ccccc3N(Cc3cccc(Cl)c3)C2=O)cc1` (stereo not drawn) [Compound 2, 2-[2-[4-(Aminomethyl)phenoxy]ethyl]-4-(3-chlorobenzyl)-3,4-dihydro-3-oxo-2H-1,4-benzoxazine], in the assay on gram positive bacteria, the MIC lay in the range of 8 to 32 µg/mL (≈ 18.9 to 75.7 µM). Further, the IC50 on Kinase A and SpoOF stood at 55 µM.

In the case of `NCc1ccc(OCCC2Oc3ccccc3N(Cc3ccc(Cl)cc3)C2=O)cc1` (stereo not drawn) [Compound 4, 2-[2-[4-(Aminomethyl)phenoxy]ethyl]-4-(4-chlorobenzyl)-3,4-dihydro-3-oxo-2H-1,4-benzoxazine], the minimum inhibitory concentration (MIC) in the assay on gram positive bacteria lay within 8 to 16 µg/mL (≈ 18.9 to 37.8 µM). This molecule also registered an IC50 on Kinase A and SpoOF of 47 µM.

Molecule `NCCc1cccc(OCCC2Oc3ccccc3N(Cc3ccccc3Cl)C2=O)c1` (stereo not drawn) [Compound 16, 2-[2-[3-(2-Aminoethyl)phenoxy]ethyl]-4-(2-chlorobenzyl)-3,4-dihydro-3-oxo-2H-1,4-benzoxazine] had an MIC in the assay with gram positive bacteria of 8 to 16 µg/mL (≈ 18.3 to 36.6 µM). Further, the IC50 on Kinase A and SpoOF came out at 74 µM.

Turning to `N=C(N)NCc1ccc(OCCC2Oc3ccccc3N(Cc3ccccc3Cl)C2=O)cc1` (stereo not drawn) [Compound 19, 4-(2-Chlorobenzyl)-2-[2-[4-(guanidinomethyl)phenoxy]ethyl]-3,4-dihydro-3-oxo-2H-1,4-benzoxazine], the MIC in the assay on gram positive bacteria lay within 1 to 4 µg/mL (≈ 2.15 to 8.6 µM). Moreover, the IC50 at Kinase A and SpoOF was determined as 16 µM.

In the assay on gram positive bacteria, `N=C(N)NCCc1ccc(OCCC2CN(Cc3ccc(Cl)cc3)c3ccccc3O2)cc1` (stereo not drawn) [Compound 22, 4-(4-Chlorobenzyl)-2-[2-[4-(2-guanidinoethyl)phenoxy]ethyl]-3,4-dihydro-2H-1,4-benzoxazine] had an MIC of 2 to 4 µg/mL (≈ 4.3 to 8.6 µM). Further, the IC50 at Kinase A and SpoOF is given as 41 µM.

Molecule `N=C(N)NCCc1ccc(OCCC2CN(Cc3cccc(Cl)c3)c3ccccc3O2)cc1` (stereo not drawn) [Compound 23, 4-(3-Chlorobenzyl)-2-[2-[4-(2-guanidinoethyl)phenoxy]ethyl]-3,4-dihydro-2H-1,4-benzoxazine] returned an MIC against gram positive bacteria of 1 to 2 µg/mL (≈ 2.15 to 4.3 µM). At Kinase A and SpoOF, this molecule had an IC50 of 17 µM.

In the case of `N=C(N)NCCc1ccc(OCCC2Oc3ccccc3N(Cc3ccc(Cl)cc3)C2=O)cc1` (stereo not drawn) [Compound 26, 4-(4-Chlorobenzyl)-3,4-dihydro-2-[2-[4-(2-guanidinoethyl)phenoxy]ethyl]-3-oxo-2H-1,4-benzoxazine], the MIC against gram positive bacteria was in the range of 2 to 4 µg/mL (≈ 4.18 to 8.35 µM). Moreover, the IC50 at Kinase A and SpoOF is given as 68 µM.

For the molecule `NCc1ccc(OCCC2Oc3ccccc3N(Cc3cc(Cl)cc(Cl)c3)C2=O)cc1` (stereo not drawn) [Compound 39, 2-{2-[4-(2-Aminomethyl)phenoxy]ethyl}-4-(3,5-dichlorobenzyl)-3,4-dihydro-3-oxo-2H-1,4-benzoxazine], the MIC against gram positive bacteria fell in the range of 4 to 16 µg/mL (≈ 8.75 to 35 µM). Further, the IC50 against Kinase A and SpoOF is recorded as 46 µM.

With `N=C(N)NCCc1ccc(OCCC2Oc3ccccc3N(Cc3cc(Cl)cc(Cl)c3)C2=O)cc1` (stereo not drawn) [Compound 40, 4-(3,5-Dichlorobenzyl)-3,4-dihydro-2-{2-[4-(2-guanidinoethyl)phenoxy]ethyl}-3-oxo-2H-1,4-benzoxazine], it took 2 µg/mL (≈ 3.9 µM) to inhibit growth against gram positive bacteria (MIC). At Kinase A and SpoOF, this molecule yielded an IC50 of 24 µM.

As to `N=C(N)NCCc1ccc(OCCC2Oc3ccc(Cl)cc3N(Cc3cccc(Cl)c3)C2=O)cc1` (stereo not drawn) [Compound 50, 6-Chloro-4-(3-chlorobenzyl)-2-{2-[4-(2-guanidinoethyl)phenoxy]ethyl}-3,4-dihydro-3-oxo-2H-1,4-benzoxazine], inhibition of growth in the assay on gram positive bacteria (MIC) required 2 µg/mL (≈ 3.9 µM). The molecule also had an IC50 against Kinase A and SpoOF of 9 µM.

The molecule `Cc1ccc2c(c1)OC(CCOc1ccc(CCNC(=N)N)cc1)C(=O)N2Cc1cccc(Cl)c1` (stereo not drawn) [Compound 58, 4-(3-Chlorobenzyl)-2-{2-[4-(2-guanidinoethyl)phenoxy]ethyl}-3,4-dihydro-7-methyl-3-oxo-2H-1,4-benzoxazine] registered an MIC against gram positive bacteria of 2 µg/mL (≈ 4.06 µM). This molecule also yielded an IC50 against Kinase A and SpoOF of 17 µM.

As to `CN1C(=O)C(CCOc2ccc(CCNC(=N)N)cc2)Oc2ccccc21` (stereo not drawn) [Compound 60, 3,4-Dihydro-2-{2-[4-(2-guanidinoethyl)phenoxy]ethyl}-4-methyl-3-oxo-2H-1,4-benzoxazine], the MIC against gram positive bacteria is 16 to 34 µg/mL (≈ 43.4 to 92.3 µM). This molecule also registered an IC50 against Kinase A and SpoOF of 55 µM.

`NCCc1cccc(OCCC2Oc3ccccc3N(Cc3cc(Cl)cc(Cl)c3)C2=O)c1` (stereo not drawn) [Compound 64, 2-{2-[3-(2-Aminoethyl)phenoxy]ethyl}-4-(3,5-dichlorobenzyl)-3,4-dihydro-3-oxo-2H-1,4-benzoxazine] returned an MIC with gram positive bacteria of 4 to 8 µg/mL (≈ 8.49 to 17 µM). The molecule further showed an IC50 at Kinase A and SpoOF of 32 µM.

As to `NCCc1cccc(OCCC2Oc3ccccc3N(Cc3cccc(Cl)c3)C2=O)c1` (stereo not drawn) [Compound 70, 2-{2-[3-(2-Aminoethyl)phenoxy]ethyl}-4-(3-chlorobenzyl)-3,4-dihydro-3-oxo-2H-1,4-benzoxazine], the MIC against gram positive bacteria lay in the range of 8 to 16 µg/mL (≈ 18.3 to 36.6 µM). Further, the IC50 on Kinase A and SpoOF was determined as 65 µM.

With `N=C(N)NCCc1ccc(OCCC2Oc3ccccc3N(Cc3cccc(Cl)c3)C2=O)cc1` (stereo not drawn) [Compound 72, 4-(3-Chlorobenzyl)-3,4-dihydro-2-{2-[4-(2-guanidinoethyl)phenoxy]ethyl}-3-oxo-2H-1,4-benzoxazine], the MIC in the assay on gram positive bacteria lay in the range of 2 to 4 µg/mL (≈ 4.18 to 8.35 µM). The molecule also registered an IC50 against Kinase A and SpoOF of 30 µM.

Turning to `CC(C)(C)OC(=O)NCCc1ccc(OCCC2Oc3ccccc3N(Cc3cccc(C(=O)O)c3)C2=O)cc1` (stereo not drawn) [Compound 111, 3-{3,4-Dihydro-2-[2-(4-(2-(-t-butoxycarbonylamino)ethyl)phenoxy)]ethyl-3-oxo-2H-1,4-benzoxazin-4-yl}methylbenzoic Acid], at Kinase A and SpoOF, the IC50 turned out to be 113 µM.

As to `NCCc1ccc(OCCC2Oc3ccccc3N(Cc3cccc(C(=O)O)c3)C2=O)cc1` (stereo not drawn) [Compound 112, 3-{3,4-Dihydro-2-[2-(4-(2-aminoethyl)phenoxy)]ethyl-3-oxo-2H-1,4-benzoxazin-4-yl}methylbenzoic Acid], the IC50 at Kinase A and SpoOF worked out at 254 µM.

For `O=C(O)CCc1cccc(OCCC2Oc3ccccc3N(Cc3cccc(Cl)c3)C2=O)c1` (stereo not drawn) [Compound 127, 3-[3-[2-{4-(3-Chlorobenzyl)-3,4-dihydro-3-oxo-2H-1,4-benzoxazin-2-yl}ethoxy]phenyl]propionic Acid], the IC50 against Kinase A and SpoOF was 251 µM.

In turn, `O=C1NC(=O)C(c2ccc(OCCC3Oc4ccccc4N(Cc4cccc(Cl)c4)C3=O)cc2)S1` (stereo not drawn) [Compound 134, 5-[4-{2-[4-(3-Chlorobenzyl)-3,4-dihydro-3-oxo-2H-1,4-benzoxazin-2-yl]ethoxy}phenyl]thiazolidine-2,4-dione] returned an IC50 against Kinase A and SpoOF of 23 µM.

On to `N=C(N)NCCc1ccc(OCCC2Oc3ccccc3N(Cc3ccc([N+](=O)[O-])cc3)C2=O)cc1` (stereo not drawn) [Compound 139, 3,4-Dihydro-2-{2-[4-(2-guanidinoethyl)-phenoxy]ethyl}-4-(4-nitrobenzyl)-3-oxo-2H-1,4-benzoxazine], for which the IC50 against Kinase A and SpoOF turned out to be 24 µM.

For the molecule `COc1ccc(CN2C(=O)C(CCOc3ccc(CCNC(=NC(=O)OC(C)(C)C)NC(=O)OC(C)(C)C)cc3)Oc3ccccc32)cc1` (stereo not drawn) [Compound 140, 2-{2-[4-[2-(N,N-Bis-tert-butoxycarbonylguanidino)ethyl]phenoxy]ethyl}-3,4-dihydro-4(4-methoxybenzyl)-3-oxo-2H-1,4-benzoxazine], the IC50 at Kinase A and SpoOF was 343 µM.

In turn, `NCCCc1ccc(OCCC2Oc3ccccc3N(Cc3ccc(Cl)cc3)C2=O)cc1` (stereo not drawn) [Compound 142, 2-[2-[4-(3-Aminopropyl)phenoxy]ethyl]-4-(4-chlorobenzyl)-3,4-dihydro-3-oxo-2H-1,4-benzoxazine] yielded an IC50 against Kinase A and SpoOF of 42 µM.

Regarding `CC(C)(C)OC(=O)N=C(NCCc1ccc(OCCC2Oc3cc([N+](=O)[O-])ccc3N(Cc3ccccc3[N+](=O)[O-])C2=O)cc1)NC(=O)OC(C)(C)C` (stereo not drawn) [Compound 143, 2-{2-[4-(2-(N,N-Bis-tert-butoxycarbonylguanidino)ethyl)phenoxy]ethyl}-3,4-dihydro-7-nitro-4-(2-nitrobenzyl) 3-oxo-2H-1,4-benzoxazine], the IC50 on Kinase A and SpoOF stood at 73 µM.

As for `CC(C)(C)OC(=O)NCCc1ccc(OCCC2Oc3ccccc3N(Cc3cccc(Cl)c3)C2=O)cc1` (stereo not drawn) [Compound 144, 2-[2-[4-(2-(t-Butoxycarbonylamino)ethyl)phenoxy]ethyl]-4-(3-chlorobenzyl)-3,4-dihydro-3-oxo-2H-1,4-benzoxazine], the IC50 against Kinase A and SpoOF was 348 µM.
